From article PMC8791944, “GLUT3 inhibitor discovery through in silico ligand screening and in vivo validation in eukaryotic expression systems” (Scientific Reports, 2022)
Like-named read-outs stand apart in the source and are kept apart here.

Target: T1, GLUT2∆loopS_Q455R (Homo sapiens, UniProt P11168, Q455R, form not given)
T1 sequence (P11168 1-524 Q455R): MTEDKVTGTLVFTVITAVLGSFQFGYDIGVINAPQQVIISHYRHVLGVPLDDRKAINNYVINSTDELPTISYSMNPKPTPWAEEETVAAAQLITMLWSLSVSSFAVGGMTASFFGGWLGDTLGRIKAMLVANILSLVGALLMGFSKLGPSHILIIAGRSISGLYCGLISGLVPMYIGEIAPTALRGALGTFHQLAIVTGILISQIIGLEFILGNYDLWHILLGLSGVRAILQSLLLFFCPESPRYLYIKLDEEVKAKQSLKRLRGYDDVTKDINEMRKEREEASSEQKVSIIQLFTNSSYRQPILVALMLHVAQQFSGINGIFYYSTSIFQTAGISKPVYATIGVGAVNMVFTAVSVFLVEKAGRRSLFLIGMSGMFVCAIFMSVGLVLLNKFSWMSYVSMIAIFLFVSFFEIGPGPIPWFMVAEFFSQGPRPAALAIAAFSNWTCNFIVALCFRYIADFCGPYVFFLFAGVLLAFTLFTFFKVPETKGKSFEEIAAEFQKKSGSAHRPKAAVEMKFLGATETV
Experiment: Glucose transport assay, GLUT2∆loopS_Q455R expressed in hxt^0 yeast cells EBY.S7
Format: cell-based
Text: The most studied GLUTs are Class 1 GLUTs (GLUT1-4) and a Class 2 GLUT, GLUT5 (a fructose-only transporter). GLUT3 sequence homology and identity is 79% and 64%, 71% and 52%, 74% and 57%, and 60% and 38% with GLUT1, GLUT2, GLUT4, and GLUT5, respectively. The hxt^0 yeast cell systems expressing functional GLUT1-4[65],[69] and GLUT5[66] allow us to determine the in vivo transport activity (substrate uptake by a GLUT into whole cells) for individual GLUTs and establish GLUT3 inhibitor selectivity for these transporters. The transport assay was performed as described for GLUT3, but at the substrate concentrations that correspond to the KM for each GLUT (i.e., 5 mM glucose for GLUT1 and GLUT4[65], 15 mM glucose for GLUT2∆loopS_Q455R[63], and 10 mM fructose for GLUT5S72Y[66]).
The transport activity was assayed as the substrate uptake in hexose transporter-deficient yeast cells expressing functional GLUT1[65], GLUT2[69], GLUT4[65], or GLUT5[66]. Substrate final concentration in the assay matched the corresponding substrate KM and was 5 mM glucose for GLUT1 and GLUT4, 15 mM glucose for GLUT2∆loopS_Q455R, and 10 mM fructose for GLUT5S72Y. Transport assay was initiated by the addition of C^14-labeled substrate and stopped after 10 min (see “Materials and methods” for details). […] Standard deviations for experimental points come from at least three independent measurements.
The plasmids containing functional constructs of GLUT1-5 were transformed in the corresponding hxt^0 strains[65],[66],[73] (EBY.VW4000 for GLUT5S72Y, EBY.S7 for GLUT1, GLUT2∆loopS_Q455R, GLUT3 and GLUT3S66Y, and SDY.022 for GLUT4) and grown on 2% (w/v) agar plates of the respective media supplemented with 1% (w/v) maltose. An initial culture of ~ 10 ml was started with a few colonies and grown for 2–3 days if the media was SC-uracil with 1% (w/v) maltose (GLUT1, GLUT3, GLUT4) or 1–2 days if the media was YEP with 1% (w/v) maltose and 100 µg/ml geneticin G418 (GLUT2∆loopS_Q455R and GLUT5S72Y). Cells were washed once in the corresponding media in which maltose was substituted with 0.1–2% hexose substrate for the expressing GLUT (i.e., SC-uracil, 2% (w/v) glucose for GLUT1; SC-uracil, 0.2% (w/v/) glucose for GLUT3 and GLUT4; YEP, 0.2% (w/v) glucose, 100 µg/ml geneticin G418 for GLUT2∆loopS_Q455R, and YEP, 2% (w/v) fructose for GLUT5 S72Y). Then, cells were transferred in the same media so that OD600nm ~ 0.5 and grown further for 1–2 days.
For transport activity assay, cells in the hexose media were centrifuged (1000×g, 5 min, room temperature), washed once with PBS buffer (10 mM Na2HPO4, 1.8 mM KH2PO4, 2.7 mM KCl, 137 mM NaCl, pH 7.4), and resuspended in PBS buffer at an OD600nm ~ 10; each assay contained 100 µl of this cell solution. Transport activity assay was started by adding C^14-hexose at a substrate concentration corresponding to the respective KM (5 mM glucose for GLUT1 or GLUT4, 3 mM glucose for GLUT3 or 1.5 mM glucose for GLUT3S66Y, 15 mM glucose for GLUT2∆loopS_Q455R, and 10 mM fructose for GLUT5S72Y); for determining the glucose KM in GLUT3 and GLUT3S66Y, substrate concentrations were varied accordingly. […] The filtration membranes were transferred into scintillation vials with 10 ml of Scintillation Solution (BioSafeII; Research Products International, Mount Prospect, IL, USA), and vortexed briefly. The radioactivity was determined with a scintillation counter (Tri-carb 2900TR, Perkin Elmer, USA).

[1] = GLUT2∆loopS_Q455R in hxt^0 yeast cells, 15 mM glucose; read-out: IC50 for GLUT2 transport inhibition

COc1ccccc1-n1c(/C=C/c2ccc(O)cc2)nc2ccc(Br)cc2c1=O [G3iB, 6-bromo-2-[(E)-2-(4-hydroxyphenyl)ethenyl]-3-(2-methoxyphenyl)quinazolin-4(3H)-one]
IC50 (read-out: IC50 for GLUT2 transport inhibition; GLUT2∆loopS_Q455R in hxt^0 yeast cells, 15 mM glucose): > 50 µM

Cc1cc(NC(=O)CCC2Cc3ccccc3NC2=O)nc(-c2ccccc2)n1 (stereo not shown) [G3iD]
IC50 [1]: 40 ± 3.7 µM

O=C(Nc1cccc(Cl)c1)c1cccc(NC(=O)c2cccc([N+](=O)[O-])c2)c1 [G3iE, N-{3-[(3-chloroanilino)carbonyl]phenyl}-3-nitrobenzamide]
IC50 [1]: > 50 µM

Cc1ccccc1CN(Cc1nnc(C(C)(C)C)o1)c1ccc2nc(O)[nH]c2c1 [G3iF]
IC50 [1]: 24.7 ± 8.4 µM

Cc1cccnc1OC1CCN(c2cc(N3CCCC3CO)ncn2)CC1 (stereo not shown) [G3iC]
IC50 [1]: > 50 µM

CC(=O)Nc1ccc(S(=O)(=O)Nc2ccc(Nc3cc(N(C)C)nc(C)n3)cc2)cc1 [G3iA, N-(4-{[(4-{[6-(dimethylamino)-2-methylpyrimidin-4-yl]amino}phenyl)amino]sulfonyl}phenyl)acetamide]
IC50 [1]: 29.4 ± 6.3 µM
Potency for GLUT2 relative to GLUT3 (IC50 ratio, weaker for GLUT2) (IC50 GLUT2 versus IC50 GLUT3): ~ fourfold
